In patent US20260216294A1, “BETA 2-ADRENERGIC RECEPTOR AGONISTS FOR TREATMENT OR PREVENTION OF MUSCLE WASTING” (ATROGI AB, priority 2023, published 2026):

Tests used:
L6-myotubes [1] = experiment: Measurement of intracellular cAMP levels in differentiated L6-myotubes (Biological Example 3); type: cell-based; settings: 0.25 h, intracellular cAMP; compound at 10 μM relative to isoproterenol at 10 μM
Method: (§1) Compounds described in publications referenced and incorporated herein were screened in accordance with the procedures outlined in Biological example 2 and Biological example 3.
Differentiated L6-myotubes were serum-starved overnight and stimulated with isoprenaline or the test compound with a final concentration of 1×10^−5 M, for 15 min in stimulation buffer (HBSS supplemented with 1% BSA, 5 mM HEPES and 1 mM IBMX, pH 7.4). The medium was aspirated and 100 μL of 95% EtOH was added to each well of the 24-well plate and cells were kept at −20° C. overnight. The EtOH was allowed to evaporate and 500 μL of lysis buffer (1% BSA, 5 mM HEPES and 0.3% Tween-20, pH 7.4) was added to each well. The plate was kept at −80° C. for 30 min and then at −20° C. until the day of detection when the samples were thawed. Intracellular cAMP levels were detected using an alpha screen cAMP kit (6760635D from Perkin Elmer).

L6-myotubes [2] = experiment: Glucose uptake in differentiated L6-myotubes (Biological Example 2); type: cell-based; settings: glucose uptake; compound at 10 μM relative to isoproterenol at 10 μM; read-out: Biological example 2 (GU)
Method: as §1
Differentiated L6-myotubes were serum-starved overnight in medium containing 0.5% fatty-acid free BSA and stimulated with isoprenaline or the test compound, with a final concentration of 1×10^−5 M. After 1 h 40 min the cells were washed with warm glucose free medium or PBS twice and another portion of agonist was added to the glucose free medium. After 20 min the cells were exposed to 50 nM ^3H-2-deoxyglucose for 10 min before washed with ice cold glucose free medium or PBS three times and lysed with 0.2 M NaOH, 400 μL/well, for 1 h at 60° C. The cell lysate was mixed with 4 mL scintillation buffer (Emulsifier Safe, Perkin Elmer) and the radioactivity was detected in a […] (Tri-Carb 4810TR, Perkin Elmer).

Structure (SMILES)	Emax at 10 µM (L6-myotubes [1])	Emax at 10 µM (L6-myotubes [2])
Oc1ccc(C(O)CNCCC2CC2)cc1 (centres unmarked) [Compound 24, p-[2-(2-cyclopropylethylamino)-1-hydroxyethyl]phenol]	< 25%	50 to 75%
CCCC(C)NCC(O)c1cc(Cl)c(O)c(Cl)c1 (centres unmarked) [Compound 25, 1-(3,5-dichloro-4-hydroxyphenyl)-2-(1-methylbutylamino)-1-ethanol]	< 25%	< 25%
CCCCNCC(O)c1cc(O)cc(O)c1 (centres unmarked) [Compound 26, 5-[2-(butylamino)-1-hydroxyethyl]resorcinol]	< 25%	50 to 75%
CCC[C@@H](C)NC[C@H](O)c1ccc(O)cc1 [Compound 27, (R)-2-[(R)-1-methylbutylamino]-1-(p-hydroxyphenyl)-1-ethanol]	25 to 50%	> 75%
CCC[C@@H](C)NC[C@H](O)c1cccc(O)c1 [Compound 28, (R)-2-[(R)-1-methylbutylamino]-1-(m-hydroxyphenyl)-1-ethanol]	50 to 75%	> 75%
CCCCNCC(O)c1cc(Cl)c(N)c(Cl)c1 (centres unmarked) [Compound 29, 1-(4-amino-3,5-dichlorophenyl)-2-(butylamino)-1-ethanol]	25 to 50%	> 75%
Oc1ccc(C(O)CNCCCC2CC2)cc1 (centres unmarked) [Compound 30, 2-(3-cyclopropylpropylamino) -1-(p-hydroxyphenyl)-1-ethanol]	< 25%	> 75%
CCCCNCC(O)c1cc(Cl)c(N)c(C(F)(F)F)c1 (centres unmarked) [Compound 32, 1-[4-amino-3-chloro-5-(trifluoromethyl)phenyl] -2-(butylamino)-1-ethanol]	25 to 50%	> 75%
CCCC(C)NCC(O)c1cc(Cl)c(N)c(C(F)(F)F)c1 (centres unmarked) [Compound 33, 1-[4-amino-3-chloro-5-(trifluoromethyl)phenyl] -2-(1-methylbutylamino)-1-ethanol]	> 75%	50 to 75%
CCCCNCC(O)c1ccc(Cl)c(O)c1 (centres unmarked) [Compound 34, 2-(butylamino)-1-(4-chloro-3-hydroxyphenyl)-1-ethanol]	< 25%	> 75%
CCCC(C)NCC(O)c1ccc(Cl)c(O)c1 (centres unmarked) [Compound 35, 1-(4-chloro-3-hydroxyphenyl)-2-(1-methylbutylamino)-1-ethanol]	< 25%	> 75%
CCCCNCC(O)c1cc(F)c(N)c(F)c1 (centres unmarked) [Compound 37, 1-(4-amino-3,5-difluorophenyl)-2-(butylamino)-1-ethanol]	> 75%	> 75%
CCCCNCC(O)c1ccc(F)c(NC(C)=O)c1F (centres unmarked) [Compound 42, N-{3-[2-(butylamino)-1-hydroxyethyl]-2,6-difluorophenyl}acetamide]	< 25%	25 to 50%
CCCCNCC(O)c1ccc(F)c(N)c1F (centres unmarked) [Compound 43, 1-(3-amino-2,4-difluorophenyl)-2-(butylamino)-1-ethanol]	< 25%	> 75%
CCCCNCC(O)c1ccc(F)c(N)c1 (centres unmarked) [Compound 44, 1-(3-amino-4-fluorophenyl)-2-(butylamino)-1-ethanol]	< 25%	50 to 75%
CCC[C@@H]1CCC[C@H]([C@H](O)c2cccc(O)c2)N1 [Compound 45]	< 25%	> 75%
CCCCNC[C@H](O)c1ccc(F)cc1 [Compound 46, (R)-2-(butylamino)-1-(p-fluorophenyl)-1-ethanol]	< 25%	50 to 75%
CCCCNC[C@H](O)c1cccc(F)c1 [Compound 47, (R)-2-(butylamino)-1-(m-fluorophenyl)-1-ethanol]	< 25%	50 to 75%
CCCCNCC(O)c1ccncc1 (centres unmarked) [Compound 48, 2-(butylamino)-1-(4-pyridyl)-1-ethanol]	< 25%	25 to 50%
CCCCNCC(O)c1cccnc1 (centres unmarked) [Compound 49, 2-(butylamino)-1-(3-pyridyl)-1-ethanol]	< 25%	50 to 75%
CCC[C@@H](C)NC[C@H](O)c1cccc(F)c1 [Compound 50, (R)-2-[(R)-1-methylbutylamino]-1-(m-fluorophenyl)-1-ethanol]	< 25%	> 75%
CCC[C@H](C)NC[C@H](O)c1cccc(F)c1 [Compound 51]	< 25%	> 75%
CCC[C@@H](C)NC[C@H](O)c1ccc(F)cc1 [Compound 52, (R)-2-[(R)-1-methylbutylamino]-1-(p-fluorophenyl)-1-ethanol]	< 25%	50 to 75%

Structure (SMILES)	Emax at 10 µM (L6-myotubes [1])	Emax at 10 µM (L6-myotubes [2])
CCC[C@H](C)NC[C@H](O)c1ccc(F)cc1 [Compound 53, (R)-2-[(S)-1-methylbutylamino]-1-(p-fluorophenyl)-1-ethanol]	< 25%	50 to 75%
CC(C)(C)NC[C@H](O)c1cccc(F)c1 [Compound 54, (R)-2-(tert-butylamino)-1-(m-fluorophenyl)-1-ethanol]	< 25%	> 75%
CCCCNCC(O)c1cc(F)cc(F)c1 (centres unmarked) [Compound 55, 2-(butylamino)-1-(3,5-difluorophenyl)-1-ethanol]	< 25%	50 to 75%
CCCCNCC(O)c1ccc(F)c(F)c1 (centres unmarked) [Compound 56, 2-(butylamino)-1-(3,4-difluorophenyl)-1-ethanol]	< 25%	50 to 75%
CCC[C@@H]1CC[C@H]([C@H](O)c2cccc(F)c2)N1 [Compound 58]	25 to 50%	> 75%
CCC[C@@H]1CCC[C@H]([C@H](O)c2cccc(F)c2)N1 [Compound 59, (R)-[(2R,6R)-6-propyl-2-piperidyl](m-fluorophenyl)methanol]	< 25%	25 to 50%
CCC[C@@H]1CCC[C@H]([C@@H](O)c2cccc(F)c2)N1 [Compound 60]	< 25%	25 to 50%
CCCC(C)(C)NC[C@H](O)c1cccc(F)c1 [Compound 61, (R)-2-(1,1-dimethylbutylamino)-1-(m-fluorophenyl)-1-ethanol]	< 25%	> 75%
CCCCNCC(O)c1cc[nH]c(=O)c1 (centres unmarked) [Compound 62, 4-[2-(butylamino)-1-hydroxyethyl]-2(1H)-pyridinone]	< 25%	25 to 50%
CCCCNCC(O)c1ccc(=O)[nH]c1 (centres unmarked) [Compound 63, 5-[2-(butylamino)-1-hydroxyethyl]-2(1H)-pyridinone]	< 25%	25 to 50%
CCC[C@H]1CCC[C@H]([C@H](O)c2cccc(O)c2)N1 [Compound 64, (R)-[(2R,6S)-6-propyl-2-piperidyl](m-hydroxyphenyl)methanol]	< 25%	> 75%
CCC[C@H]1CCC[C@H]([C@@H](O)c2ccc(F)c(F)c2)N1 [Compound 65]	< 25%	25 to 50%
CCC[C@H]1CCC[C@H]([C@@H](O)c2cc(F)cc(F)c2)N1 [Compound 66]	< 25%	25 to 50%
CCC[C@H]1CCC[C@H]([C@H](O)c2ccc(F)c(F)c2)N1 [Compound 67, (R)-[(2R,6S)-6-propyl-2-piperidyl](3,4-difluorophenyl)methanol]	< 25%	25 to 50%
CCC[C@H]1CCC[C@H]([C@H](O)c2cc(F)cc(F)c2)N1 [Compound 68]	< 25%	50 to 75%
CCC[C@H]1CCC[C@H]([C@H](O)c2cccc(F)c2)N1 [Compound 69]	< 25%	50 to 75%
CCC[C@H]1CCC[C@H]([C@@H](O)c2cccc(F)c2)N1 [Compound 70]	< 25%	50 to 75%
CCCCNC[C@H](O)c1csc(N)n1 [Compound 71, (S)-1-(2-amino-1,3-thiazol-4-yl)-2-(butylamino)-1-ethanol]	< 25%	25 to 50%
CCCCNC[C@H](O)c1csc(C(F)(F)F)n1 [Compound 72, (S)-2-(butylamino)-1-[2-(trifluoromethyl)-1,3-thiazol-4-yl]-1-ethanol]	< 25%	25 to 50%
CCCCNC[C@H](O)c1ccnc(N)n1 [Compound 73, (S)-1-(2-amino-4-pyrimidinyl)-2-(butylamino)-1-ethanol]	< 25%	25 to 50%
CCCCNC[C@H](O)c1cnc(NC(=O)C(C)C)s1 [Compound 74, N-{5-[(S)-2-(butylamino)-1-hydroxyethyl]-1,3-thiazol-2-yl}2-methylpropionamide]	< 25%	25 to 50%
CCCCNC[C@H](O)c1cnc(N)s1 [Compound 75, (S)-1-(2-amino-1,3-thiazol-5-yl)-2-(butylamino)-1-ethanol]	< 25%	25 to 50%
CC(C)(C)NC[C@H](O)c1cccc(F)c1F [Compound 76, (R)-2-(tert-butylamino)-1-(2,3-difluorophenyl)-1-ethanol]	25 to 50%	> 75%
